# Laboratory results: ChEMBL document CHEMBL1201862, “PubChem BioAssay data set” (2004)
#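 Values below derive from 48-hour exposures of cells grown in 96-well plates, with endpoints linearly interpolated between the two concentrations bracketing the appropriate inhibition level. The concentration for 50% growth inhibition is given as GI50.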 Calls of active or inactive are those of the source. Rule as the data show it: active = GI50 up to about 1.1 µM and inactive = higher.
# Experiments:
# Assay in all cases: DTP human tumour cell line panel, 48 h
# A498 = tested on: A498
# A549 = tested on: A549
# ACHN = tested on: ACHN
# CAKI-1 = tested on: CAKI-1
# COLO 205 = tested on: COLO 205
# DLD-1 = tested on: DLD-1
# DMS-114 = tested on: DMS-114
# DMS-273 = tested on: DMS-273
# EKVX = tested on: EKVX
# HCT-15 = tested on: HCT-15
# HOP-18 = tested on: HOP-18
# K562 = tested on: K562
# KM-20L2 = tested on: KM-20L2
# KM12 = tested on: KM12
# LXFL 529 = tested on: LXFL 529
# M19-MEL = tested on: M19-MEL
# MOLT-4 = tested on: MOLT-4
# Malme-3M = tested on: Malme-3M
# OVCAR-3 = tested on: OVCAR-3
# RPMI-8226 = tested on: RPMI-8226
# RXF 631 = tested on: RXF 631
# SF-295 = tested on: SF-295
# SK-MEL-28 = tested on: SK-MEL-28
# SN12C = tested on: SN12C
# SNB-19 = tested on: SNB-19
# SNB-78 = tested on: SNB-78
# SW-620 = tested on: SW-620
# U-251 = tested on: U-251
# UACC-62 = tested on: UACC-62
# XF498 = tested on: XF498
structure (smiles),measurement,setting,value
Cc1cc2c(C(C)C)c(O)c(O)c(C=O)c2c(O)c1-c1c(C)cc2c(C(C)C)c(O)c(O)c(C=O)c2c1O [GOSSYPOL],GI50,A498,4.35 µM (inactive)
same,GI50,A549,2.98 µM (inactive)
same,GI50,ACHN,3.02 µM (inactive)
same,GI50,CAKI-1,4.14 µM (inactive)
same,GI50,COLO 205,2.63 µM (inactive)
same,GI50,DLD-1,3.84 µM (inactive)
same,GI50,DMS-114,2.58 µM (inactive)
same,GI50,DMS-273,4.4 µM (inactive)
same,GI50,EKVX,2.15 µM (inactive)
same,GI50,HCT-15,3.52 µM
same,GI50,HOP-18,3.69 µM (inactive)
same,GI50,K562,3.08 µM (inactive)
same,GI50,KM-20L2,3.33 µM (inactive)
same,GI50,KM12,1.97 µM (inactive)
same,GI50,LXFL 529,2.74 µM (inactive)
same,GI50,M19-MEL,3.34 µM (inactive)
same,GI50,MOLT-4,1.91 µM (inactive)
same,GI50,Malme-3M,5.46 µM (inactive)
same,GI50,OVCAR-3,3.24 µM (inactive)
same,GI50,RPMI-8226,2.49 µM (inactive)
same,GI50,RXF 631,5.32 µM (inactive)
same,GI50,SF-295,2.37 µM (inactive)
same,GI50,SK-MEL-28,4.66 µM (inactive)
same,GI50,SN12C,5.09 µM (inactive)
same,GI50,SNB-19,3.86 µM (inactive)
same,GI50,SNB-78,5.14 µM (inactive)
same,GI50,SW-620,4.59 µM (inactive)
same,GI50,U-251,2.52 µM (inactive)
same,GI50,UACC-62,2.36 µM (inactive)
same,GI50,XF498,2.26 µM (inactive)
